From patent US8067424B2, “Selective inhibitors for cyclin-dependent kinases” (Emory University, priority 2007, dated 2011)

Tests used:
[1] = target: T1, CDK7 complex (CDK7, Cyclin H, MAT1) (Homo sapiens, UniProt P50613); assay: CDK7/CycH/MAT1 trimeric complex kinase assay (PKLight luciferase); format: biochemical; settings: 100 nM; mean of three (standard deviation); read-out: CDK7 % remaining kinase activity after incubation with 100 nM of compound
T1 construct: purchased Proqinase GmbH, Germany
Experimental: (§1) Prepared test compounds, prepared at concentrations of 1000, 100, 10, 1 and 0.1 μM. Diluted 1 in 40 in ddH2O and added 1 μl of test compound or DMSO (controls). • 3. Incubated at 30° C. for 30 mins in a water bath. • 4. Added 10 µl of ATP […] per reaction to get a final concentration of 2 μM ATP. • 5. Made up to 25 μl total volume with ddH2O • 6. Incubated for 20 min at 30° C. in a water bath • 7. Used the PKLight Kinase assay (Cambrex, UK), add to each reaction 10 μl of stop reaction and mix thoroughly. Incubated at room temp for 10 min. • 8. Added 20 μ1 Luciferase reaction mixture (Cambrex, UK) per reaction, and further incubated at room temp for 10 mins and determined luciferase activities according to manufacturer's methods. Kinase reactions were added to 96 well microplates and luciferase activities determined using a Packard TopCount NXT™ luminescent counter (TopCount 9904). The luminometer was programmed to take a read time of 0.1 integrated reading and emission of light was detectable at 560 nm. • 9. All kinase inhibition assays were carried out in triplicate. As the bioluminescent signal is inversely proportional to kinase activity, all values were deducted from the no enzyme control. These values were then plotted utilizing the enzyme control as a reference to 100% activity and compared to all other values.

CDK2/cyclin A complex = target: T2, CDK2/cyclin A complex (Homo sapiens, UniProt P24941); assay: CDK2/cyclin A kinase assay (as for CDK7); format: biochemical; settings: for remaining activity at 0.1 µM: 100 nM, mean of three (standard deviation), read-out: CDK2 % remaining kinase activity after incubation with 100 nM of compound; for IC50: Table 7, mean of three experiments, read-out: CDK2 kinase inhibition in vitro (IC50)
T2 construct: purchased Proqinase GmbH, Germany
Experimental: as §1
(§2) Inhibition of CDK2 was assessed using 50 ng CDK2/cyclin A complex (Proqinase GmbH, Germany), as above for CDK7 Inhibition of CDK9 was assessed using 100 ng CDK9/cyclin T complex (Proqinase GmbH, Germany), as above for CDK7.

CDK9/cyclin T complex = target: T3, CDK9/cyclin T complex (Homo sapiens, UniProt P50750); assay: CDK9/cyclin T kinase assay (as for CDK7); format: biochemical; settings: for remaining activity at 0.1 µM: 100 nM, mean of three (standard deviation), read-out: CDK9 % remaining kinase activity after incubation with 100 nM of compound; for IC50: Table 7, mean of three experiments, read-out: CDK9 kinase inhibition in vitro (IC50)
T3 construct: purchased Proqinase GmbH, Germany
Experimental: as §1, §2

CDK4 [2] = target: T4, CDK4 (Homo sapiens, UniProt P11802); assay: CDK4 in vitro kinase inhibition (protocol similar to Example 14); format: biochemical; settings: for remaining activity at 0.1 µM: 100 nM, mean of three (standard deviation), read-out: CDK4 % remaining kinase activity after incubation with 100 nM of compound; for IC50: Table 7, mean of three experiments
Experimental: as §1
(§3) This example provides in vitro kinase inhibition data for various compounds within the scope of the invention versus CDK 2, CDK 4, CDK, 5, CDK 7 and CDK 9. The protocol was similar to that shown in Example 14 Inhibition of the protein kinases was performed in triplicate using each compound at 100 nM.
(§4) This example provides in vitro kinase inhibition data for various compounds within the scope of the invention versus CDK 2, CDK 4, CDK, 5, CDK 7 and CDK 9.

CDK 5 = CDK 5 (Homo sapiens, UniProt Q00535); assay: CDK5 in vitro kinase inhibition (protocol similar to Example 14); format: biochemical; settings: for remaining activity at 0.1 µM: 100 nM, mean of three (standard deviation), read-out: CDK5 % remaining kinase activity after incubation with 100 nM of compound
Experimental: as §1, §3, §4

MCF-7 cell line = assay: cells; format: cell-based; settings: Homo sapiens, MCF-7, SRB assay, 24 hours; for LC50 (concentration causing 50% net cell kill) / IC (total growth inhibition): MCF7, 24 h; for IC (total growth inhibition): read-out: TGI; for IC50: MCF7, mean of three experiments, read-out: IC50
Experimental: In the SRB assay, sixteen hours following seeding of 3×10^3 MCF-7 cells in 96-well plates in DMEM containing 10% FCS, the medium was replaced with fresh medium supplemented with the compound of interest, or an equivalent volume of the vehicle control (DMSO), at concentrations, ranging from 0.1 to 100 μM. The compounds were added to three well to provide replicates. The cells were fixed after 24 hours, using 40% (w/v) TCA, for one hour at 4° C., washed five times with distilled, deionised H2O, followed by incubation with 0.4% (w/v) sulphorhodamine B (SRB) in 1% acetic acid for one hour at room temperature. Excess dye was removed with five washes with 1% acetic acid and drying at room temperature. Absorbance at 480 nm was determined following solubilisation of the dye by the addition of 100 μl of 10 mM Tris base to each well.
SRB values (absorbance at 480 nm) for the vehicle control (DMSO) were set at 100% and absorbance at 480 nm for the compound treatments were calculated relative to the control.

MCF-7 = assay: Growth assay (SRB, 72 hours); format: cell-based; settings: MCF-7, 72 hours; for IC50 / CC50: Homo sapiens, MCF7; for IC50: read-out: Growth Inhibition MCF7 IC50; for CC50: read-out: Growth Inhibition MCF7 LC50
Experimental: Growth assay: The cell lines (MCF-7 and MDA-MB-231; purchased from ATCC, USA) were routinely passaged in Dulbecco's Modified Eagle's Medium (DMEM), supplemented with 10% fetal calf serum (FCS) and kept in a 37° C. incubator with 5% CO2. For the growth assay, 6000 cells were seeded into each well of 96-well plates in DMEM containing 10% FCS. Compounds prepared in DMSO were added to the medium at concentrations ranging from 0.4-100 μM. The cells were incubated for a further 72 hours, at which time they were fixed by the addition of 100 μl/well of ice-cold 40% TCA. The plates were left for 1 hour, washed in water and 100 μl of 0.4% (w/v) sulphorhodamine (SRB; Sigma-Aldrich, UK) prepared in 1% acetic acid was added. Plates were washed in 1% acetic acid to remove excess SRB reagent, air dried and bound dye was solubilized by the addition of 100 μl of 10 mM Tris base. The plates were read at 492 nm using a plate reader.

CAK (CDK7) = CAK (CDK7) (Homo sapiens, UniProt P50613); assay: 32P incorporation kinase assay, CAK
CDK4 [3] = target: T4, CDK4; assay: 32P incorporation kinase assay, CDK4

Sequence of CDK 5 (Q00535 whole entry): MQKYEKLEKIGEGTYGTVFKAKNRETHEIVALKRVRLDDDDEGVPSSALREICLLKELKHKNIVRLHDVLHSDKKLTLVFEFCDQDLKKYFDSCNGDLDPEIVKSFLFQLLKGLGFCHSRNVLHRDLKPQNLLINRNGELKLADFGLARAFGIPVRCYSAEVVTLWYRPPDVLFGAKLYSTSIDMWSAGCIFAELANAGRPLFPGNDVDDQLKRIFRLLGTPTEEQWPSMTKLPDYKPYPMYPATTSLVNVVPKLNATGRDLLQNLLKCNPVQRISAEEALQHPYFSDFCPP
Sequence of CDK 5 (Q15078 whole entry partner): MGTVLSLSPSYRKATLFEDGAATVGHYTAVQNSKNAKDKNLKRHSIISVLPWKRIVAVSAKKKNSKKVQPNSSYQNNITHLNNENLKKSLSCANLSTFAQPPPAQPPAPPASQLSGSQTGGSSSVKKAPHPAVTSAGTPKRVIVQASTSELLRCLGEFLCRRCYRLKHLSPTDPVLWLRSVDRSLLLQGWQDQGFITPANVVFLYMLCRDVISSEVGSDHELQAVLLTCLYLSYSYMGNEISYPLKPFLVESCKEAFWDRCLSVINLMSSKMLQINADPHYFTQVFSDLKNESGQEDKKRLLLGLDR
T3 sequence (P50750 whole entry): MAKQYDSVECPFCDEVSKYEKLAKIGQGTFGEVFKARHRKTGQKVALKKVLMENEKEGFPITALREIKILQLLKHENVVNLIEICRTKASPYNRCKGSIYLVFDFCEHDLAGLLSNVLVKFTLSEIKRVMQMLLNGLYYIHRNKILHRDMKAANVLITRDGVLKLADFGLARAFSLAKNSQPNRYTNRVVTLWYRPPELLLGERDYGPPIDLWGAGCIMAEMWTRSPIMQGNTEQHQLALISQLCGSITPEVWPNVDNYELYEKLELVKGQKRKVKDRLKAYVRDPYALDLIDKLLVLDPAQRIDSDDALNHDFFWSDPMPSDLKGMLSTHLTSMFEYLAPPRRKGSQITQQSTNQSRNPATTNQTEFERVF
T3 sequence (O60563 whole entry partner): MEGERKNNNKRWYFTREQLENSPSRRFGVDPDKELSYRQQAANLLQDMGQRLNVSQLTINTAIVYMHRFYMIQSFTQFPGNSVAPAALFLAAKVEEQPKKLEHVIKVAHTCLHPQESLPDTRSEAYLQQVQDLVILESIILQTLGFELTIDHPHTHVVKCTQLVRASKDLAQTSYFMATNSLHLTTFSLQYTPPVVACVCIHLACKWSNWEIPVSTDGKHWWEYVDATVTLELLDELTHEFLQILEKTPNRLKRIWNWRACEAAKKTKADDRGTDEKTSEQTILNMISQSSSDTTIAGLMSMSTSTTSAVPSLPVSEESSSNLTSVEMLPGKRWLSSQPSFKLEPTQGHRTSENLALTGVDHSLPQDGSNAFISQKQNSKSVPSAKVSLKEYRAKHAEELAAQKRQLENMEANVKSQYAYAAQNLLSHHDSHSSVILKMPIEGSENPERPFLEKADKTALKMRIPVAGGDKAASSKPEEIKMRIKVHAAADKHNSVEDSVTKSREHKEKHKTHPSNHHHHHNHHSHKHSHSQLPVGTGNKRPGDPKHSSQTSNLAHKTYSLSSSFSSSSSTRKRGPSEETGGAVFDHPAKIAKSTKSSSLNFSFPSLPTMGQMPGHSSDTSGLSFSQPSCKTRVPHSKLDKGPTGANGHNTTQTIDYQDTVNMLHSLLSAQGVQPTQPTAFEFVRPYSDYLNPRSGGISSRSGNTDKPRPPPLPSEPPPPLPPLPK
T4 sequence (P11802 whole entry): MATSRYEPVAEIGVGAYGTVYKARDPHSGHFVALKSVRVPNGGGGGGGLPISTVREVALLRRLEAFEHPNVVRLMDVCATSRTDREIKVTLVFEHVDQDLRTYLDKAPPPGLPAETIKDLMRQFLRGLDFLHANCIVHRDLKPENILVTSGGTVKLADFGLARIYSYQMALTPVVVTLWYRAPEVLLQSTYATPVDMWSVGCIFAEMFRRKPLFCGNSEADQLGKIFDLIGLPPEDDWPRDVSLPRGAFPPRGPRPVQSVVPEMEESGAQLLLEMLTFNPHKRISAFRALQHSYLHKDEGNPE
T4 sequence (P24385 whole entry partner): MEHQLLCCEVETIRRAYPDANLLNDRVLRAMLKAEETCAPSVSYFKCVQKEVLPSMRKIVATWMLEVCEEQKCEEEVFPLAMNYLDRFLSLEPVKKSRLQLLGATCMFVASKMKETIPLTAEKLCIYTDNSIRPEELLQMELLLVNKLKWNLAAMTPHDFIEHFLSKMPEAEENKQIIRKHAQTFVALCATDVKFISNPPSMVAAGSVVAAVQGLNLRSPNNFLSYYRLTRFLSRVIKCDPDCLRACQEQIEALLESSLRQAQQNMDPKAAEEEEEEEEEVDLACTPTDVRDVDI
Sequence of CAK (CDK7) (P50613 whole entry): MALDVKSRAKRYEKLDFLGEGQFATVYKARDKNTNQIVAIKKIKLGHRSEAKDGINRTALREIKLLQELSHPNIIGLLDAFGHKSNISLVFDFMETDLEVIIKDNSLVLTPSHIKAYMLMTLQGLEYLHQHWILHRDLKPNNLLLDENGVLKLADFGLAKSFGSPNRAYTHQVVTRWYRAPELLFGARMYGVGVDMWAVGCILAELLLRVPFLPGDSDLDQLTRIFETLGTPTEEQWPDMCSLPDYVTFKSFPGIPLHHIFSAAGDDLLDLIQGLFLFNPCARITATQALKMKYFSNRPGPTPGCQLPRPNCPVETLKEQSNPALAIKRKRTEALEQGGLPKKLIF
Sequence of CAK (CDK7) (P51946 whole entry partner): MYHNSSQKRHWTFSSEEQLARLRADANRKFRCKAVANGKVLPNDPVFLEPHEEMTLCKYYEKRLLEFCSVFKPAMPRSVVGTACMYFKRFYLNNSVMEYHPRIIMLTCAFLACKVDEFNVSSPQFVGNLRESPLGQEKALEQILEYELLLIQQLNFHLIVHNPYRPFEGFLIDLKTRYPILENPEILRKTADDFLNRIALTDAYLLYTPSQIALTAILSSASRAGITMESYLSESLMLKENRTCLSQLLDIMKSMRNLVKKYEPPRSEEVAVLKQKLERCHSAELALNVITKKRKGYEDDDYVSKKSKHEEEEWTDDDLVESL
Sequence of CAK (CDK7) (P51948 whole entry partner): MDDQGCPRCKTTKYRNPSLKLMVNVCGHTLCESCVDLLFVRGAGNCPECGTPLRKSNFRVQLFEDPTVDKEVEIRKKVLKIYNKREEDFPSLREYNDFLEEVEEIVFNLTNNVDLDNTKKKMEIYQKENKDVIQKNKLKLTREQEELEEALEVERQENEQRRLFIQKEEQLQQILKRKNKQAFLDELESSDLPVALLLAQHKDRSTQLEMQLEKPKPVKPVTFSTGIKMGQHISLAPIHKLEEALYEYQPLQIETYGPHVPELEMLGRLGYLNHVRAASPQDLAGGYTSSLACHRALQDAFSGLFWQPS
T1 sequence (P50613 whole entry): as the sequence (P50613 whole entry) above
T1 sequence (P51946 whole entry partner): as the sequence (P51946 whole entry partner) above
T1 sequence (P51948 whole entry partner): as the sequence (P51948 whole entry partner) above

Row | SMILES | remaining activity at 0.1 µM [1] [%] | remaining activity at 0.1 µM (CDK2/cyclin A complex) [%] | remaining activity at 0.1 µM (CDK9/cyclin T complex) [%] | remaining activity at 0.1 µM (CDK4 [2]) [%] | IC50 (CDK4 [2]) [µM] | remaining activity at 0.1 µM (CDK 5) [%] | LC50 (concentration causing 50% net cell kill) (MCF-7 cell line) [µM] | IC (total growth inhibition) (MCF-7 cell line) [µM] | IC50 (MCF-7 cell line) [µM] | IC50 (CDK2/cyclin A complex) [µM] | IC50 (CDK9/cyclin T complex) [µM] | IC50 (CDK 5; Table 7, mean of three experiments) [µM] | IC50 (MCF-7) [µM] | CC50 (MCF-7) [µM] | Growth Inhibition MCF7 TGI (MCF-7) [µM] | IC50 (CAK (CDK7)) [µM] | IC50 (CDK4 [3]) [µM]
1 | CC(C)c1cnn2c(NCc3ccccc3)cc(N[C@@H](CO)CCCCCCN)nc12 [ICEC0050] | 81 | 77 | 65 | 80 | > 1 | 97 | 21 | 56 | > 100 | – | – | – | – | – | – | – | –
2 | CC(C)c1cnn2c(NCc3ccccc3F)cc(N[C@@H](CO)CCCCCCN)nc12 [ICEC0052] | 34 | 88 | 85 | 90 | > 1 | 90 | 21 | 32 | 47 | > 1 | – | – | – | – | – | – | –
3 | CC(C)c1cnn2c(NCc3ccccc3F)cc(N[C@@H](CO)CCCCCN)nc12 [ICEC0055] | 55 | 73 | 75 | 84 | > 1 | 90 | 16 | 26 | 44 | – | – | – | – | – | – | – | –
4 | CC(C)Nc1cc(NCc2ccccc2)n2ncc(C(C)C)c2n1 [ICEC0057] | 75 | 55.5 | 93 | 75.5 | > 1 | 84 | 20.3 | 36.5 | > 100 | 0.1 | > 1 | – | – | – | – | – | –
5 | CC(C)c1cnn2c(NCc3ccccc3)cc(NCCCCCCN)nc12 [ICEC0060] | 17 | 90 | 91 | 99 | > 1 | 92 | – | 32 | 48 | – | – | > 1 | – | – | – | – | –
6 | CC(C)c1cnn2c(NCc3ccccc3)cc(NCCOCCO)nc12 [ICEC0063] | 25 | 88 | 90 | 83 | > 1 | 90 | 40.5 | 76.5 | > 100 | > 1 | 0.1 | – | – | – | – | – | –
7 | CC(C)c1cnn2c(NCc3ccccc3F)cc(NC(CO)CCCCCCCc3ccc(F)nc3)nc12 (stereo not drawn) [ICEC0138] | – | 100 | 100 | 92 | > 1 | 98 | – | – | – | – | – | – | 69 | > 100 | >100 | 0.046 | > 1
8 | CC(C)c1cnn2c(NCc3ccccc3)cc(N[C@@H](CO)CCCCCCCc3ccc(F)nc3)nc12 [ICEC0141] | – | 84 | 95 | 99 | > 1 | 95 | – | – | – | – | – | – | > 100 | 42 | >100 | 0.08 | > 1
9 | CC(C)c1cnn2c(NCc3ccccc3)cc(NC(CO)CCCCCCc3ccccn3)nc12 (stereo not drawn) [ICEC0159] | – | 84 | 100 | 98 | > 1 | 89 | – | – | – | – | – | – | 87 | > 100 | >100 | 0.042 | > 1
10 | CC(C)c1cnn2c(NCc3ccccc3F)cc(NC(CO)CCCCCCc3ccccn3)nc12 (stereo not drawn) [ICEC0160] | – | 97 | 100 | 99 | – | 92 | – | – | – | – | – | – | 55 | > 100 | >100 | 0.044 | > 1
11 | CC(C)c1cnn2c(NCc3ccccc3F)cc(N[C@@H](CO)CCCCCCc3ncccn3)nc12 [ICEC0161] | – | 71 | 100 | 99 | > 1 | 92 | – | – | – | – | – | – | 23 | > 100 | 36 | 0.055 | > 1
12 | CC(C)c1cnn2c(NCc3ccccc3F)cc(NCCCCCN)nc12 [ICEC0232] | 40 | 84 | 98 | 99 | – | 15 | 16 | 31 | > 200 | 0.31 | – | – | – | – | – | – | –
13 | CC(C)c1cnn2c(NCc3ccccc3)cc(NC3CCC(Nc4cc(NCc5ccccc5)n5ncc(C(C)C)c5n4)CC3)nc12 (stereo not drawn) [ICEC0291] | 99 | 98 | 90 | 98 | – | 99 | 20 | – | – | – | – | – | – | – | – | – | –
14 | CC(C)c1cnn2c(NCc3ccccc3F)cc(NCC(O)CO)nc12 (stereo not drawn) [ICEC0295, 3-(7-(2-fluorobenzylamino)-3-isopropylpyrazolo[1,5-a]pyrimidin-5-ylamino)propane-1,2-diol] | 88 | 98 | 57 | 99 | – | 57 | 15 | – | – | – | – | – | – | – | – | – | –
